Laboratory results as given in PubChem BioAssay AID272 (DTP/NCI, 2004).
Values joined by “and” are separate entries in the source; they are usually repeats but may differ in a detail not shown here. Identical values can stand only once. Results filed as inconclusive are left out.

Tested on: Lewis lung carcinoma i.m., BDF1 mice, T/C %
Assay: NCI In Vivo Anticancer Drug Screen. Data for tumor model Lewis Lung Carcinoma (intramuscular) in B6D2F1 (BDF1) mice
Procedure, shortened: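 Antitumour activity is assessed in transplanted-tumour mice. Endpoint is survival or tumour size, normalised to vehicle-dosed controls (T/C).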

## CN(Cc1cnc2nc(N)nc(N)c2n1)c1ccc(C(=O)N[C@@H](CCC(=O)O)C(=O)O)cc1
endpoint: mean tumor weight, dose: 0.23 mg/kg/injection, schedule: Q01DX009 (ip), vehicle: sodium bicarbonate, higher = larger tumour
  T/C: 107 % of control
endpoint: mean tumor weight, dose: 0.31 mg/kg/injection, schedule: Q01DX011 (ip), vehicle: other, higher = larger tumour
  T/C: 86 % of control and 100 % of control and 109 % of control
endpoint: mean tumor weight, dose: 0.39 mg/kg/injection, schedule: Q01DX009 (ip), vehicle: sodium bicarbonate, higher = larger tumour
  T/C: 71 % of control
endpoint: mean tumor weight, dose: 0.65 mg/kg/injection, schedule: Q01DX009 (ip), vehicle: sodium bicarbonate, higher = larger tumour
  T/C: 48 % of control and 69 % of control
endpoint: mean tumor weight, dose: 1.08 mg/kg/injection, schedule: Q01DX009 (ip), vehicle: sodium bicarbonate, higher = larger tumour
  T/C: 53 % of control and 59 % of control
endpoint: mean tumor weight, dose: 1.8 mg/kg/injection, schedule: Q01DX009 (ip), vehicle: sodium bicarbonate, higher = larger tumour
  T/C: 40 % of control and 44 % of control
endpoint: mean tumor weight, dose: 2.5 mg/kg/injection, schedule: Q01DX011 (ip), vehicle: other, higher = larger tumour
  T/C: 94 % of control
endpoint: mean tumor weight, dose: 23.0 mg/kg/injection, schedule: Q04DX003 (ip), vehicle: sodium bicarbonate, higher = larger tumour
  T/C: 57 % of control
endpoint: mean tumor weight, dose: 39.0 mg/kg/injection, schedule: Q04DX003 (ip), vehicle: sodium bicarbonate, higher = larger tumour
  T/C: 33 % of control
endpoint: mean tumor weight, dose: 65.0 mg/kg/injection, schedule: Q04DX003 (ip), vehicle: sodium bicarbonate, higher = larger tumour
  T/C: 13 % of control
endpoint: median survival time, dose: 0.12 mg/kg/injection, schedule: Q01DX011 (ip), vehicle: sodium bicarbonate, higher = longer survival
  T/C: 123 % of control
endpoint: median survival time, dose: 0.23 mg/kg/injection, schedule: Q01DX009 (ip), vehicle: sodium bicarbonate, higher = longer survival
  T/C: 90 % of control and 93 % of control
endpoint: median survival time, dose: 0.25 mg/kg/injection, schedule: Q01DX011 (ip), vehicle: sodium bicarbonate, higher = longer survival
  T/C: 112 % of control and 122 % of control
endpoint: median survival time, dose: 0.39 mg/kg/injection, schedule: Q01DX009 (ip), vehicle: sodium bicarbonate, higher = longer survival
  T/C: 118 % of control and 121 % of control
endpoint: median survival time, dose: 0.5 mg/kg/injection, schedule: Q01DX011 (ip), vehicle: sodium bicarbonate, higher = longer survival
  T/C: 108 % of control and 109 % of control
endpoint: median survival time, dose: 1.0 mg/kg/injection, schedule: Q01DX011 (ip), vehicle: sodium bicarbonate, higher = longer survival
  T/C: 107 % of control
endpoint: median survival time, dose: 2.0 mg/kg/injection, schedule: Q01DX011 (ip), vehicle: sodium bicarbonate, higher = longer survival
  T/C: 121 % of control
endpoint: median survival time, dose: 3.0 mg/kg/injection, schedule: Q01DX009 (ip), vehicle: sodium bicarbonate, higher = longer survival
  T/C: 32 % of control
endpoint: median survival time, dose: 14.0 mg/kg/injection, schedule: Q04DX003 (ip), vehicle: sodium bicarbonate, higher = longer survival
  T/C: 89 % of control
endpoint: median survival time, dose: 23.0 mg/kg/injection, schedule: Q04DX003 (ip), vehicle: sodium bicarbonate, higher = longer survival
  T/C: 90 % of control and 98 % of control
endpoint: median survival time, dose: 39.0 mg/kg/injection, schedule: Q04DX003 (ip), vehicle: sodium bicarbonate, higher = longer survival
  T/C: 100 % of control and 112 % of control
endpoint: median survival time, dose: 65.0 mg/kg/injection, schedule: Q04DX003 (ip), vehicle: sodium bicarbonate, higher = longer survival
  T/C: 34 % of control and 112 % of control

## CC(C)[C@](O)(C(=O)OCC1=CC[N+]2([O-])CC[C@@H](O)[C@@H]12)[C@H](C)O (stereo partly drawn)
endpoint: mean tumor weight (est.), dose: 200.0 mg/kg/injection, schedule: Q01DX011 (ip), vehicle: saline, higher = larger tumour
  T/C: 76 % of control
endpoint: mean tumor weight (est.), dose: 400.0 mg/kg/injection, schedule: Q01DX011 (ip), vehicle: saline, higher = larger tumour
  T/C: 78 % of control
endpoint: mean tumor weight, dose: 50.0 mg/kg/injection, schedule: Q01DX011 (ip), vehicle: water, higher = larger tumour
  T/C: 78 % of control
endpoint: mean tumor weight, dose: 100.0 mg/kg/injection, schedule: Q01DX011 (ip), vehicle: water, higher = larger tumour
  T/C: 44 % of control
endpoint: mean tumor weight, dose: 200.0 mg/kg/injection, schedule: Q01DX011 (ip), vehicle: water, higher = larger tumour
  T/C: 56 % of control
endpoint: mean tumor weight, dose: 400.0 mg/kg/injection, schedule: Q01DX011 (ip), vehicle: water, higher = larger tumour
  T/C: 47 % of control
endpoint: median survival time, dose: 200.0 mg/kg/injection, schedule: Q01DX011 (ip), vehicle: saline, higher = longer survival
  T/C: 101 % of control
endpoint: median survival time, dose: 400.0 mg/kg/injection, schedule: Q01DX011 (ip), vehicle: saline, higher = longer survival
  T/C: 101 % of control

## C1OC1CN1CCN(CC2CO2)CC1 (stereo not drawn)
endpoint: mean tumor weight (est.), dose: 1.0 mg/kg/injection, schedule: Q01DX011 (ip), vehicle: saline, higher = larger tumour
  T/C: 83 % of control
endpoint: mean tumor weight (est.), dose: 2.0 mg/kg/injection, schedule: Q01DX011 (ip), vehicle: saline, higher = larger tumour
  T/C: 65 % of control
endpoint: mean tumor weight (est.), dose: 4.0 mg/kg/injection, schedule: Q01DX011 (ip), vehicle: saline, higher = larger tumour
  T/C: 74 % of control
endpoint: mean tumor weight (est.), dose: 8.0 mg/kg/injection, schedule: Q01DX011 (ip), vehicle: saline, higher = larger tumour
  T/C: 71 % of control
endpoint: mean tumor weight (est.), dose: 16.0 mg/kg/injection, schedule: Q01DX011 (ip), vehicle: saline, higher = larger tumour
  T/C: 63 % of control
endpoint: median survival time, dose: 2.0 mg/kg/injection, schedule: Q01DX011 (ip), vehicle: saline, higher = longer survival
  T/C: 96 % of control
endpoint: median survival time, dose: 4.0 mg/kg/injection, schedule: Q01DX011 (ip), vehicle: saline, higher = longer survival
  T/C: 105 % of control
endpoint: median survival time, dose: 16.0 mg/kg/injection, schedule: Q01DX011 (ip), vehicle: saline, higher = longer survival
  T/C: 106 % of control
